Measurements taken from ChEMBL document CHEMBL5137070, “N-2-(Phenylamino) Benzamide Derivatives as Dual Inhibitors of COX-2 and Topo I Deter Gastrointestinal Cancers via Targeting Inflammation and Tumor Progression” (J Med Chem, 2022).
The source made the active and inactive calls. The calls are words filed in the database; no cut-off is given here.

How the values were obtained:
HGC-27 = assay: Antiproliferative activity against human HGC-27 cells assessed as reduction in cell proliferation incubated for 48 hrs by MTT assay; assay type: functional, cell-based; details: HGC-27, 48 h
[1] = target: T1, DNA topoisomerase 1 (Homo sapiens) (UniProt P11387); assay: Inhibition of human topoisomerase I assessed as DNA unwinding using DNA pBR322 as substrate at 2 uM incubated for 30 mins by ethidium bromide staining based agarose gel electrophoresis
T1 sequence (whole entry): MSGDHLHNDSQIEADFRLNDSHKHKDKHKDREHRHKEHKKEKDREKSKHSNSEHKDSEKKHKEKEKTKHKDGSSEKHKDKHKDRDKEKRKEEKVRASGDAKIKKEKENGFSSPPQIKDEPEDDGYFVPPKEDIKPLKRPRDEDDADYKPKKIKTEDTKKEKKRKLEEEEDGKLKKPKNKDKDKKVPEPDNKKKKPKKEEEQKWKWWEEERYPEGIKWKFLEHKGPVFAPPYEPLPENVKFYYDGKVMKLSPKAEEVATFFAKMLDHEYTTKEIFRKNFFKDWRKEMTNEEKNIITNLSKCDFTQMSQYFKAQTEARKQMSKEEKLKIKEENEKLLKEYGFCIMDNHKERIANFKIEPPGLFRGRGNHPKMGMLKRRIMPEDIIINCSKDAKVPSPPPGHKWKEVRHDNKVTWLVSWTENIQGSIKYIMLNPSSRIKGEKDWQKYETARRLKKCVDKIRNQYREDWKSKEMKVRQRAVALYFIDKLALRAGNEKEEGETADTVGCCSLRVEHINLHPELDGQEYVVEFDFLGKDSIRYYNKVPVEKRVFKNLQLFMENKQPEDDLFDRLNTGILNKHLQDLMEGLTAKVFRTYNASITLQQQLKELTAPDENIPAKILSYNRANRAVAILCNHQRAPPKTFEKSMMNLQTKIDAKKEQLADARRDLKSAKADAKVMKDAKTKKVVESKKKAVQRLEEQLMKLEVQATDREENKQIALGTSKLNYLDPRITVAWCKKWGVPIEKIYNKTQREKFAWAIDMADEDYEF

CT26.WT = assay: Antiproliferative activity against mouse CT26.WT cells assessed as reduction in cell proliferation incubated for 48 hrs by MTT assay; assay type: functional, cell-based
HT-29 = assay: Antiproliferative activity against human HT-29 cells assessed as reduction in cell proliferation incubated for 48 hrs by MTT assay; assay type: functional, cell-based; details: HT-29, 48 h
SGC-7901 = assay: Antiproliferative activity against human SGC-7901 cells assessed as reduction in cell proliferation incubated for 48 hrs by MTT assay; assay type: functional, cell-based; details: SGC-7901, 48 h
RKO [2] = assay: Antiproliferative activity against human RKO cells assessed as reduction in cell proliferation incubated for 48 hrs by MTT assay; assay type: functional, cell-based
RAW264.7 [3] = assay: Cytotoxicity against mouse RAW264.7 cells assessed as reduction in cell viability at <=11.11 for 24 hrs by MTT assay; assay type: toxicity, cell-based; details: raw264.7, 24 h
RKO [4] = assay: Anti-migration activity against human RKO cells assessed as inhibition of cell migration at 0.37 uM and measured after 24 hrs by wound healing assay; assay type: functional, cell-based
RAW264.7 [5] = assay: Antiinflammatory activity in mouse RAW264.7 cells assessed as reduction in LPS-induced COX-2 expression at 6.6 uM incubated for 1 hrs followed by LPS stimulation and measured after 24 hrs by western blot analysis; assay type: functional, cell-based; details: time 25.0 hrs

Compound	IC50 (HGC-27) [µM]	inhibition [1] [%]	IC50 (CT26.WT) [µM]	IC50 (HT-29) [µM]	IC50 (SGC-7901) [µM]	IC50 (RKO [2]) [µM]	Activity (RAW264.7 [3]) [%]	Activity (RKO [4])	Activity (RAW264.7 [5])
Cc1c(Cl)cccc1Nc1ccccc1C(=O)NCc1cccc(O)c1	2.41	37.4	8.52	33.6	8.92	6.97			
Cc1c(Cl)cccc1Nc1ccccc1C(=O)NCc1ccc(O)c(F)c1	12	44.7	11.6	26.3	60.8	5.23			
Cc1c(Cl)cccc1Nc1ccccc1C(=O)O [TOLFENAMIC ACID]	> 100		> 100	> 100	> 100	> 100	> 80		
Cc1c(Cl)cccc1Oc1ccccc1C(=O)NCc1ccc(O)cc1	59.4	17.6	36.8	> 100	90.4	101			
OCc1ccc(O)cc1 [PARAHYDROXYBENZYL ALCOHOL]	> 100		> 100	> 100	> 100	> 100			
Cc1cccc(Nc2ccccc2C(=O)NCc2ccc(O)cc2)c1C	33.1	19.3	> 100	19.7	22.1	17.4			
Cc1ccc(Cl)c(Nc2ccccc2C(=O)NCc2ccc(O)cc2)c1Cl	35.2	5.57	83.4	23.7	20.5	28.9			
Cc1c(Cl)cccc1Nc1ccccc1C(=O)NCc1ccc(O)c(O)c1	16.5	55.3	9.64	19.5	59.7	59.4			
Cc1c(Cl)cccc1N(C)c1ccccc1C(=O)NCc1ccc(O)cc1	58	25.9	> 100	> 100	77.7	> 100			
O=C(NCc1ccc(O)cc1)c1ccccc1Nc1ccccc1	54.8	37.3	> 100	50.9	61	69.9			
CC[C@@]1(O)C(=O)OCc2c1cc1n(c2=O)Cc2cc3ccccc3nc2-1 [CAMPTOTHECIN]	0.166		0.43	1.37	5.8	0.0617		Active	
Cc1c(Cl)cccc1Nc1ccccc1C(=O)NCc1cccc2c1OCO2	27.7	3.51	> 100	22.5	41.9	26.9			
Cc1c(Cl)cccc1Nc1ccccc1C(=O)NCc1ccc(F)cc1	46.4	24.7	> 100	> 100	51.8	62.4			
Cc1c(Cl)cccc1Nc1ncccc1C(=O)NCc1ccc(O)cc1	50.2	6.87	> 100	47.3	33.9	23.7			
Cc1c(Cl)cccc1N(C)c1ccccc1C(=O)NCc1ccc(O)c(F)c1	88.1	22.3	> 100	52.5	99.9	> 100			
Cc1ccc(Nc2cccc(Cl)c2C)c(C(=O)NCc2ccc(O)c(F)c2)c1	56.8	19.7	> 100	16.2	62.1	50.6			
O=C(NCc1ccc(O)cc1)c1ccccc1Nc1cccc(Cl)c1	26.4	26.7	38.3	43.8	32.7	24.9			
O=C(NCCc1ccc(O)cc1)c1ccccc1Nc1ccccc1	92.5	13.8	67.8	44.5	60.4	> 100			
Cc1c(Cl)cccc1Nc1ccccc1C(=O)NCc1ccccc1O	46.9	15.2	> 100	51.4	38	32.7			
Cc1c(Cl)cccc1Nc1ccccc1C(=O)NCc1ccc(O)cc1	34.2	35	10.5	13.5	21.1	8.32			
COc1ccc(NC(=O)c2ccccc2Nc2cccc(Cl)c2C)cc1	2.32	2.55	11	5.97	5.75	3.69		Active	Active
O=C(NCCCc1ccc(O)cc1)c1ccccc1Nc1ccccc1	> 100	0	> 100	> 100	> 100	> 100			
O=C(Nc1ccc(O)cc1)c1ccccc1Nc1ccccc1	74.8	8.56	52.8	72.9	61.4	66.7			
